This note sets out measurements from article PMC6934184, “Selective DNA-PKcs inhibition extends the therapeutic index of localized radiotherapy and chemotherapy” (The Journal of Clinical Investigation, 2019).

The target of this assay is T1, PRKCI (PKC iota) (Homo sapiens, UniProt P41743).
T1 construct: purchased Thermo Fisher Scientific (Life Technologies) SelectScreen
As to the kind of experiment: SelectScreen Z'LYTE. The class given is biochemical. An outline of the steps: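 NU5455 was profiled across the SelectScreen Broad panel of kinase activity and binding assays. Z'LYTE reactions such as CSF1R ran at apparent Km ATP, while the Adapta CAMK1 assay used ATP listed as 10. Values are given as percent.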

T1 sequence (P41743 whole entry): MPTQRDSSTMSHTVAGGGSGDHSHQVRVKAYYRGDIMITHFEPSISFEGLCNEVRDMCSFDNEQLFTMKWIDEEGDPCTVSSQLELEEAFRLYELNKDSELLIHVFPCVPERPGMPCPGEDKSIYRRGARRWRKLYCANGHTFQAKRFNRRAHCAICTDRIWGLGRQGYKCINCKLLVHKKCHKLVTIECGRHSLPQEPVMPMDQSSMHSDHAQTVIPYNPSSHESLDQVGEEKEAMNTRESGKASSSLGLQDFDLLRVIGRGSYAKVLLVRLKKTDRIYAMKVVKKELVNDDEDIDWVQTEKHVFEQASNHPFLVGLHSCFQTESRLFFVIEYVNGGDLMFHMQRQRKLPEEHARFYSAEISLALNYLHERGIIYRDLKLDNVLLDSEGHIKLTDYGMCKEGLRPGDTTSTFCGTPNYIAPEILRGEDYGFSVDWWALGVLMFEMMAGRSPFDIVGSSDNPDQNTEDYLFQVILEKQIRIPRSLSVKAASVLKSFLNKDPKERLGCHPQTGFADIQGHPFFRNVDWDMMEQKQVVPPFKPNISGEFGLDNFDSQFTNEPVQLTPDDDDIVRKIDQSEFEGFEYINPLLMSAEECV

`CN(C(=O)CN1CCOCC1)c1ccc2sc3c(-c4cccc5c(=O)cc(N6CC7CCC(C6)O7)oc45)cccc3c2c1` [NU5455]: the inhibition at 1 µM was -0.8%.

As usually defined, the inhibition is the change of the read-out against control, counted positive when it falls.
